# Biological target: human PAD4 (hPAD4) (Homo sapiens (Human), UniProt Q9UM07)
# Test: RFMS Human PAD4 Functional Assay 1
# Assay type: biochemical
# Details: RFMS assay 1; 5 nM hPAD4, 250 μM BAEE substrate, 50 μM calcium, 37° C.
# Method in brief: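 Recombinant hPAD4 (5 nM) was preincubated with compound (top 50 μM, 0.5% DMSO) for 30 min at 37 °C, then reacted with 250 μM BAEE for 90 min at 37 °C in pH 7.5 HEPES buffer with 50 μM calcium and 5 μM TPEN. Product was derivatized with phenyl glyoxal and quantified by RapidFire MS.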
# human PAD4 (hPAD4), sequence (Q9UM07 whole entry): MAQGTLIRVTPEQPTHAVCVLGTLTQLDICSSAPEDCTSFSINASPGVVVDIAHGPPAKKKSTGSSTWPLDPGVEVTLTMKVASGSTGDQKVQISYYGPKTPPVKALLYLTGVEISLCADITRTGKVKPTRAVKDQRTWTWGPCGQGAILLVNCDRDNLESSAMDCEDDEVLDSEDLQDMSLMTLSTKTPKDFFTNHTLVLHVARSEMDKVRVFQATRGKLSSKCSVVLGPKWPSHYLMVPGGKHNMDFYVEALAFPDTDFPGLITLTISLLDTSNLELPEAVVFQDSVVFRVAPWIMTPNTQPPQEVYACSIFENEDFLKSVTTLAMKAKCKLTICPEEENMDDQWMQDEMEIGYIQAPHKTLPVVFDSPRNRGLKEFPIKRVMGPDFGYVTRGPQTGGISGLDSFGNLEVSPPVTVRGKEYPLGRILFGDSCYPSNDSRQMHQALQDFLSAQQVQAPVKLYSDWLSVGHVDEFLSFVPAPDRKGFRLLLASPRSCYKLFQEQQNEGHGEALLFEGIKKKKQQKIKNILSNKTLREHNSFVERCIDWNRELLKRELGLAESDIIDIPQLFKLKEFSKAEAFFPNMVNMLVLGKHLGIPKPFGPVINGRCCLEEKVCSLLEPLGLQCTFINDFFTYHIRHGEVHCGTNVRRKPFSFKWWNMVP
row,IC50,SMILES
1,3580 nM,"Cc1c(-c2cc3ccc(Cl)nc3n2CC2CC2)nn2cc(C(=O)N3C[C@H](N)C[C@@H](F)C3)cc(Cl)c12 [Example 289, (3R,5R)-1-{4-Chloro-2-[6-chloro-1-(cyclopropylmethyl)-1H-pyrrolo[2,3-b]pyridin-2-yl]-3-methylpyrazolo[1,5-a]pyridine-6-carbonyl}-5-fluoropiperidin-3-amine]"
2,2720 nM,"Cc1c(-c2cc3ccc(-c4ccc5[nH]ncc5c4)nc3n2CC2CC2)nn2cc(C(=O)N3C[C@H](N)C[C@@H](F)C3)cc(Cl)c12 [Example 290, (3R,5R)-1-{4-Chloro-2-[1-(cyclopropylmethyl)-6-(1H-indazol-5-yl)-1H-pyrrolo[2,3-b]pyridin-2-yl]-3-methylpyrazolo[1,5-a]pyridine-6-carbonyl}-5-fluoropiperidin-3-amine]"
3,5890 nM,"Cc1c(-c2cc3ccc(Cl)nc3n2CC2CC2)nn2cc(C(=O)N3CCC[C@@H](N)C3)cc(Cl)c12 [Example 291, (3R)-1-{4-Chloro-2-[6-chloro-1-(cyclopropylmethyl)-1H-pyrrolo[2,3-b]pyridin-2-yl]-3-methylpyrazolo[1,5-a]pyridine-6-carbonyl}piperidin-3-amine]"
4,2350 nM,"Cc1c(-c2cc3ccc(-c4ccc5[nH]ncc5c4)nc3n2CC2CC2)nn2cc(C(=O)N3CCC[C@@H](N)C3)cc(Cl)c12 [Example 292, (3R)-1-{4-chloro-2-[1-(Cyclopropylmethyl)-6-(1H-indazol-5-yl)-1H-pyrrolo[2,3-b]pyridin-2-yl]-3-methylpyrazolo[1,5-a]pyridine-6-carbonyl}piperidin-3-amine]"
5,200 nM,"Cc1c(-c2cc3ccc(-c4ccc(C(N)=O)cc4Cl)cc3n2CC2CC2)nn2cc(C(=O)N3CC4CCC3[C@@H]4N)cc(F)c12 (stereo partly drawn) [Example 294, 4-(2-{6-[(7R)-7-Amino-2-azabicyclo[2.2.1]heptane-2-carbonyl]-4-fluoro-3-methylpyrazolo[1,5-a]pyridin-2-yl}-1-(cyclopropylmethyl)-1H-indol-6-yl)-3-chlorobenzamide]"
6,20 nM,"Cc1c(-c2cc3ccc(-c4ccn5c(C)nnc5c4)cc3n2CC2CC2)nn2cc(C(=O)N3CC4CCC3[C@@H]4N)cc(F)c12 (stereo partly drawn) [Example 295, (7R)-2-{2-[1-(Cyclopropylmethyl)-6-{3-methyl-[1,2,4]triazolo[4,3-a]pyridin-7-yl}-1H-indol-2-yl]-4-fluoro-3-methylpyrazolo[1,5-a]pyridine-6-carbonyl}-2-azabicyclo[2.2.1]heptan-7-amine]"
7,850 nM,"COC1CN(c2ccc3cc(-c4nn5cc(C(=O)N6CC7CCC6[C@@H]7N)cc(F)c5c4C)n(CC4CC4)c3c2)C1 (stereo partly drawn) [Example 296, (7R)-2-{2-[1-(Cyclopropylmethyl)-6-(3-methoxyazetidin-1-yl)-1H-indol-2-yl]-4-fluoro-3-methylpyrazolo[1,5-a]pyridine-6-carbonyl}-2-azabicyclo[2.2.1]heptan-7-amine]"
8,190 nM,"Cc1c(-c2cc3ccc(-c4cccc5[nH]nc(F)c45)nc3n2CC2CC2)nn2cc(C(=O)N3CC4CCC3[C@@H]4N)ccc12 (stereo partly drawn) [Example 297, (7R)-2-{2-[1-(Cyclopropylmethyl)-6-(3-fluoro-1H-indazol-4-yl)-1H-pyrrolo[2,3-b]pyridin-2-yl]-3-methylpyrazolo[1,5-a]pyridine-6-carbonyl}-2-azabicyclo[2.2.1]heptan-7-amine]"
9,210 nM,"Cc1c(-c2cc3ccc(-c4ccc5cn[nH]c5c4)nc3n2CC2CC2)nn2cc(C(=O)N3CC4CCC3[C@@H]4N)ccc12 (stereo partly drawn) [Example 298, (7R)-2-{2-[1-(Cyclopropylmethyl)-6-(1H-indazol-6-yl)-1H-pyrrolo[2,3-b]pyridin-2-yl]-3-methylpyrazolo[1,5-a]pyridine-6-carbonyl}-2-azabicyclo[2.2.1]heptan-7-amine]"
10,20 nM,"Cc1c(-c2cc3ccc(-c4cccc5[nH]ncc45)nc3n2CC2CC2)nn2cc(C(=O)N3CC4CCC3[C@@H]4N)ccc12 (stereo partly drawn) [Example 299, (7R)-2-{2-[1-(Cyclopropylmethyl)-6-(1H-indazol-4-yl)-1H-pyrrolo[2,3-b]pyridin-2-yl]-3-methylpyrazolo[1,5-a]pyridine-6-carbonyl}-2-azabicyclo[2.2.1]heptan-7-amine]"
11,100 nM,"Cc1c(-c2cc3ccc(-c4ccc5[nH]ncc5c4)nc3n2CC2CC2)nn2cc(C(=O)N3CC4CCC3[C@@H]4N)ccc12 (stereo partly drawn) [Example 300, (7R)-2-{2-[1-(Cyclopropylmethyl)-6-(1H-indazol-5-yl)-1H-pyrrolo[2,3-b]pyridin-2-yl]-3-methylpyrazolo[1,5-a]pyridine-6-carbonyl}-2-azabicyclo[2.2.1]heptan-7-amine]"
12,30 nM,"Cc1c(O)cccc1-c1ccc2cc(-c3nn4cc(C(=O)N5CC6CCC5[C@@H]6N)ccc4c3C)n(CC3CC3)c2n1 (stereo partly drawn) [Example 301, 3-(2-{6-[(7R)-7-Amino-2-azabicyclo[2.2.1]heptane-2-carbonyl]-3-methylpyrazolo[1,5-a]pyridin-2-yl}-1-(cyclopropylmethyl)-1H-pyrrolo[2,3-b]pyridin-6-yl)-2-methylphenol]"
13,120 nM,"Cc1c(-c2cc3ccc(-c4ccccc4N4CCNC4=O)nc3n2CC2CC2)nn2cc(C(=O)N3CC4CCC3[C@@H]4N)ccc12 (stereo partly drawn) [Example 302, 1-[2-(2-{6-[(7R)-7-Amino-2-azabicyclo[2.2.1]heptane-2-carbonyl]-3-methylpyrazolo[1,5-a]pyridin-2-yl}-1-(cyclopropylmethyl)-1H-pyrrolo[2,3-b]pyridin-6-yl)phenyl]imidazolidin-2-one]"
14,240 nM,"COc1cc(-c2ccc3cc(-c4nn5cc(C(=O)N6CC7CCC6[C@@H]7N)ccc5c4C)n(CC4CC4)c3n2)ccc1C(N)=O (stereo partly drawn) [Example 303, 4-(2-{6-[(7R)-7-Amino-2-azabicyclo[2.2.1]heptane-2-carbonyl]-3-methylpyrazolo[1,5-a]pyridin-2-yl}-1-(cyclopropylmethyl)-1H-pyrrolo[2,3-b]pyridin-6-yl)-2-methoxybenzamide]"
15,10 nM,"Cc1c(-c2cc3ccc(-c4ccc(N5CCCC5=O)cc4)nc3n2CC2CC2)nn2cc(C(=O)N3CC4CCC3[C@@H]4N)ccc12 (stereo partly drawn) [Example 304, 1-[4-(2-{6-[(7R)-7-Amino-2-azabicyclo[2.2.1]heptane-2-carbonyl]-3-methylpyrazolo[1,5-a]pyridin-2-yl}-1-(cyclopropylmethyl)-1H-pyrrolo[2,3-b]pyridin-6-yl)phenyl]pyrrolidin-2-one]"
16,40 nM,"Cc1cc(C(N)=O)c(F)cc1-c1ccc2cc(-c3nn4cc(C(=O)N5CC6CCC5[C@@H]6N)ccc4c3C)n(CC3CC3)c2n1 (stereo partly drawn) [Example 305, 4-(2-{6-[(7R)-7-Amino-2-azabicyclo[2.2.1]heptane-2-carbonyl]-3-methylpyrazolo[1,5-a]pyridin-2-yl}-1-(cyclopropylmethyl)-1H-pyrrolo[2,3-b]pyridin-6-yl)-2-fluoro-5-methylbenzamide]"
17,30 nM,"Cc1c(-c2cc3ccc(-c4ccc5cn[nH]c5c4F)nc3n2CC2CC2)nn2cc(C(=O)N3CC4CCC3[C@@H]4N)ccc12 (stereo partly drawn) [Example 306, (7R)-2-{2-[1-(Cyclopropylmethyl)-6-(7-fluoro-1H-indazol-6-yl)-1H-pyrrolo[2,3-b]pyridin-2-yl]-3-methylpyrazolo[1,5-a]pyridine-6-carbonyl}-2-azabicyclo[2.2.1]heptan-7-amine]"
18,70 nM,"CNC(=O)c1ccc(-c2ccc3cc(-c4nn5cc(C(=O)N6CC7CCC6[C@@H]7N)ccc5c4C)n(CC4CC4)c3n2)cn1 (stereo partly drawn) [Example 307, 5-(2-{6-[(7R)-7-Amino-2-azabicyclo[2.2.1]heptane-2-carbonyl]-3-methylpyrazolo[1,5-a]pyridin-2-yl}-1-(cyclopropylmethyl)-1H-pyrrolo[2,3-b]pyridin-6-yl)-N-methylpyridine-2-carboxamide]"
19,50 nM,"COC(=O)Nc1ccc(-c2ccc3cc(-c4nn5cc(C(=O)N6CC7CCC6[C@@H]7N)ccc5c4C)n(CC4CC4)c3n2)cn1 (stereo partly drawn) [Example 308, Methyl N-[5-(2-{6-[(7R)-7-amino-2-azabicyclo[2.2.1]heptane-2-carbonyl]-3-methylpyrazolo[1,5-a]pyridin-2-yl}-1-(cyclopropylmethyl)-1H-pyrrolo[2,3-b]pyridin-6-yl)pyridin-2-yl]carbamate]"
20,400 nM,"Cc1c(-c2cc3ccc(-c4ccc5[nH]ncc5c4)nc3n2CC2CC2)nn2cc(C(=O)N3CCC[C@@H](N)C3)ccc12 [Example 309, (3R)-1-{2-[1-(Cyclopropylmethyl)-6-(1H-indazol-5-yl)-1H-pyrrolo[2,3-b]pyridin-2-yl]-3-methylpyrazolo[1,5-a]pyridine-6-carbonyl}piperidin-3-amine]"
21,400 nM,"Cc1c(-c2cc3ccc(-c4ccc5cn[nH]c5c4)nc3n2CC2CC2)nn2cc(C(=O)N3CCC[C@@H](N)C3)ccc12 [Example 310, (3R)-1-{2-[1-(Cyclopropylmethyl)-6-(1H-indazol-6-yl)-1H-pyrrolo[2,3-b]pyridin-2-yl]-3-methylpyrazolo[1,5-a]pyridine-6-carbonyl}piperidin-3-amine]"
22,210 nM,"Cc1c(-c2cc3ccc(-c4cccc5[nH]ncc45)nc3n2CC2CC2)nn2cc(C(=O)N3CCC[C@@H](N)C3)ccc12 [Example 311, (3R)-1-{2-[1-(Cyclopropylmethyl)-6-(1H-indazol-4-yl)-1H-pyrrolo[2,3-b]pyridin-2-yl]-3-methylpyrazolo[1,5-a]pyridine-6-carbonyl}piperidin-3-amine]"
23,60 nM,"Cc1c(-c2ccc3cc(-c4nn5cc(C(=O)N6CCC[C@@H](N)C6)ccc5c4C)n(CC4CC4)c3n2)cc(F)c2[nH]c(=O)ccc12 [Example 312, 6-(2-{6-[(3R)-3-Aminopiperidine-1-carbonyl]-3-methylpyrazolo[1,5-a]pyridin-2-yl}-1-(cyclopropylmethyl)-1H-pyrrolo[2,3-b]pyridin-6-yl)-8-fluoro-5-methyl-1,2-dihydroquinolin-2-one]"
24,100 nM,"Cc1c(-c2cc3ccc(-c4cccc(O)c4Cl)nc3n2CC2CC2)nn2cc(C(=O)N3CCC[C@@H](N)C3)ccc12 [Example 313, 3-(2-{6-[(3R)-3-Aminopiperidine-1-carbonyl]-3-methylpyrazolo[1,5-a]pyridin-2-yl}-1-(cyclopropylmethyl)-1H-pyrrolo[2,3-b]pyridin-6-yl)-2-chlorophenol]"
